The values below come from patent US20110177180A1, “HERBAL COMPOSITION AND METHOD FOR THE TREATMENT OF VIRAL INFECTION” (PIRAMAL LIFE SCIENCES LIMITED, priority 2008, published 2011).

One may read the inhibition as the percentage by which the read-out fell short of the control.

Assay [1] has as its system HSV-2. The assay is described as follows: CPE inhibition assay - crystal violet staining method. Type of assay: cell-based. To be noted: Human alphaherpesvirus 2; 25 μg/mL; Vero cells, HSV-2 100 TCID50, 48 hours. The protocol:
The assay was designed to detect agents (in this case, the extracts) acting at any stage of the virus reproductive cycle. The assay was done as reported in Indian J. Med. Res., 2004, 120:24-29.
Vero cells (obtained in step 1 of Example 10) were propagated at a density of 1×10^4 cells/well in 96 well plate and incubated at 37° C. in a CO2 incubator for 24 hours to form a monolayer. […] Appropriate controls were included such as Vero cells alone (cell control), Vero cells with virus (virus control) and Vero cells with virus and the standard compound acyclovir. Acyclovir was checked at the following concentrations (DMSO stock of 20 mg/mL of acyclovir was diluted to 100 μg/mL with DMEM containing 2% FBS): 25 μg/mL, 3.125 μg/mL, 1.56 μg/mL and 0.78 μg/mL and 0.39 μg/mL. After one hour, cells were infected with a multiplicity of infection (moi) of 100 TCID50 of viral dose per well using viral stock obtained in step 2 of Example 10. The infected cells were incubated with maintenance medium (DMEM with 2% FBS) for another 48 hours. […] The staining solution was aspirated out and the plates rinsed using distilled water until all excess stain was washed away. The plates were allowed to dry for 24 hours. CPE was evaluated visually, after staining the plaques, and microscopically and graded according to the percentage of CPE inhibition as compared to controls. […]

For assay [2], the system named is HSV-2. The experiment in a line: Mouse vaginal model of HSV-2 infection (Example 14). In kind it is in vivo, BALB/c mice. To be noted: 75 mg/kg in PBS intravaginal, three times a day for 5 days; 5×10^3 pfu; 21 days. The protocol:
The assay was done as reported in Antiviral Research, 2006, 69:77-85.
(§1) Female BALB/c mice of eight weeks age and body weight 18-20 g were used for intravaginal (IVAG) challenge (vaginal inoculation) with the virus (using viral stock of step 2 of example 10). Five days prior to the IVAG challenge, mice were injected subcutaneously (SC) with 2 mg of progesterone (Depo-Provera®; Pfizer, Belgium) in the upper back, using a 29-gauge needle. On the day of challenge, mice were anesthetized with Ketamine (150 mg/kg) and Xylazine (10 mg/kg) by intraperitoneal injection. Mice were inoculated intravaginally with 5×10^3 pfu of the virus using a micropipette in a total volume of 20 μL DMEM. […] Each group had ten animals. Animals were treated three times a day with the treatment intervals of 4 hours for 5 days. 20 μL of the above samples were injected into the vaginal vault using micropipette.
The animals were assessed daily for survival and extravaginal disease signs through 21 days of post inoculation (PI). […]

In assay [3] the test system is HSV-2. The assay is described as follows: Mouse vaginal model of HSV-2 infection (Example 15). Conditions: 225mg/kg. Type of assay: in vivo, BALB/c mice. The procedure: as §1
The animals were assessed daily for survival and extravaginal disease signs through 21 days of post inoculation (PI). The severity of the viral disease (extravaginal signs of disease) was quantified using a well-established lesion score scale, also known as five-point scale as follows: • 0: no apparent infection; • 1: few isolated papules and slight redness of extravaginal tissue; • 2: few isolated papules, ulcers, and/or eschar and/or swelling and redness of extravaginal tissue; • 3: multiple fused ulcers/eschars, moderate swelling and redness of extravaginal tissue with extension to surrounding tissue; • 4: ulceration with severe redness and swelling of extravaginal tissue with extension to surrounding tissue, rear leg paralysis; and • 5: severe ulceration of extravaginal tissue with extension to surrounding tissue, weight loss, rear leg paralysis and death.
The assay was performed as mentioned in Example 14 with modifications as mentioned below: • (i) Mice were inoculated intravaginally with 2×10^4 pfu of the virus instead of 5×10^3 pfu in Example 14. • (ii) Evaluation was done by topical application of the formulations (Formulation I, Formulation II and Formulation III) instead of injection of extracts into vaginal vault of the animals in Example 14. • (iii) One more group of animals was studied: “infection control group” in which the mice were inoculated with the virus but were not treated.
Extract of Example 1 (dissolved in PBS) was injected into the vaginal vault using micropipette. Formulation I, Formulation II and Formulation III were applied topically (25 mg) thrice daily for a 5 day period. 25 mg of Formulation IB, IIB or IIIB correspond to 375 mg/kg dose; 25 mg of Formulation IC, IIC or IIIC correspond to 750 mg/kg dose and 25 mg of Formulation ID, IID and IIID correspond to 1500 mg/kg dose evaluated in the animals.

Setting [4] is: positive control in evaluation of Formulation I.
[5] abbreviates: positive control in evaluation of Formulation II.
Where [6] appears, read: positive control in evaluation of Formulation III.
[7] abbreviates: positive control in evaluation of extract of Example 1.

In the assay with HSV-2 [1], `Nc1nc2c(ncn2COCCO)c(=O)[nH]1` [Acyclovir] came in with an inhibition at 25 µg/mL of 76 to 100%. Besides, in the assay on HSV-2 [2], the “deaths during the experiment” value is “None of the mice died during the experiment” and the “signs of extravaginal disease” value is “None of the mice showed signs of extravaginal disease”. Besides, in the assay with HSV-2 [3] (setting [4]), the extravaginal disease result was “None of the mice showed extravaginal disease” and the survival rate turned out to be 100%. For the same compound, in the assay with HSV-2 [3] (setting [5]), the “course of extravaginal disease” value is reported as “continued till day 21”, the “day on which extravaginal disease appeared” value amounted to 18 days and the survival rate worked out at 100%. In the assay with HSV-2 [3] (setting [6]), the extravaginal disease result is reported as “None of the mice showed extravaginal disease” and the survival rate is 100%. For the same compound, in the assay with HSV-2 [3] (setting [7]), the extravaginal disease entry is on record as “None of the mice showed extravaginal disease” and the survival rate stood at 100%.
